For assay [1], the target named is T1, N-formyl peptide receptor (Homo sapiens, UniProt P21462).
T1 sequence (P21462 1-350): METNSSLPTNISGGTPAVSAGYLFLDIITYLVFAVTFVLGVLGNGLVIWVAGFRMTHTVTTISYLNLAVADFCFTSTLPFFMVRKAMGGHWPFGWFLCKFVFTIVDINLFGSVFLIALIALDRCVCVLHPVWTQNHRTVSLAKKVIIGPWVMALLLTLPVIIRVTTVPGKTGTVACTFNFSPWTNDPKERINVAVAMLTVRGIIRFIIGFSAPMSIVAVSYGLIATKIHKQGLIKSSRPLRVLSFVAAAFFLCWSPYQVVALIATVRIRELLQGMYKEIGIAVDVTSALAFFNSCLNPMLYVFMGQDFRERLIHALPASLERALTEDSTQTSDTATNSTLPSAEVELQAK
Kind of assay: Effect of guanine nucleotides on receptor affinity states of fast membranes. In kind it is binding.

Assay [2] has as its target T1, N-formyl peptide receptor. In kind it is binding. Particulars: Table II; fast microsomes, unstimulated; mean, SD, n = 5.

As to `Nc1nc2c(ncn2[C@@H]2O[C@H](COP(=O)(O)OP(=O)(O)OP(O)(O)=S)[C@@H](O)[C@H]2O)c(=O)[nH]1` [GTP-y-S], the “Effect on state C receptor” value in assay [1] (fast membranes from Fl-peptide-stimulated cells, GTP-γ-S, listed as GTP-gamma-S) is “insensitive”. On to `Nc1nc2c(ncn2[C@@H]2O[C@H](COP(=O)(O)OP(=O)(O)OP(=O)(O)O)[C@@H](O)[C@H]2O)c(=O)[nH]1` [GTP], for which the “Effect on state B dissociation rate / conversion to state A” value in assay [1] (membranes from unstimulated cells, nucleotide 10 μM where stated) is “converted to the fastest ligand-dissociation state (state A)”. For the compound “N-formyl-Nle-Leu-Phe-Nle-Tyr- Lys-fluorescein [Fl-peptide]”, in assay [2], the “Percentage of receptor associated with State B” value is reported as 47%.

The values above are taken from publication PMC2114737 (The Journal of Cell Biology, 1987).
